The NIST ThermoML archive (doi:10.1016/j.jct.2003.11.008)
Numbers after ± are expanded uncertainties.

Legend:
[1] = xn = mol fraction of the nth substance listed; settings: 318.15 K, 101.3 kPa, Liquid
[2] = excess molar enthalpy (molar enthalpy of mixing); xn = mol fraction of the nth substance listed; settings: 318.15 K, 101.3 kPa, Liquid

CCCCCCCCCCC [undecane] + CCCOC(C)=O
Settings	excess molar enthalpy [kJ/mol]	excess molar volume [m3/mol]
[1], x2 = 0.0791	–	3.43e-07 ± 1.7e-08
[1], x2 = 0.1544	–	6e-07 ± 1.8e-08
[1], x2 = 0.2306	–	8.2e-07 ± 1.9e-08
[1], x2 = 0.2908	–	9.49e-07 ± 2e-08
[1], x2 = 0.3479	–	1.051e-06 ± 2e-08
[1], x2 = 0.4046	–	1.133e-06 ± 2.1e-08
[1], x2 = 0.4573	–	1.159e-06 ± 2.1e-08
[1], x2 = 0.51	–	1.176e-06 ± 2.1e-08
[1], x2 = 0.5596	–	1.185e-06 ± 2.1e-08
[1], x2 = 0.6019	–	1.165e-06 ± 2.1e-08
[1], x2 = 0.6553	–	1.125e-06 ± 2.1e-08
[1], x2 = 0.6903	–	1.077e-06 ± 2.1e-08
[1], x2 = 0.7637	–	9.27e-07 ± 2e-08
[1], x2 = 0.8486	–	6.89e-07 ± 1.9e-08
[1], x2 = 0.9127	–	4.52e-07 ± 1.8e-08
[1], x2 = 0.9592	–	2.26e-07 ± 1.7e-08
[2], x2 = 0.0814	0.432 ± 0.0083	–
[2], x2 = 0.1501	0.722 ± 0.013	–
[2], x2 = 0.2265	1 ± 0.017	–
[2], x2 = 0.2928	1.21 ± 0.02	–
[2], x2 = 0.3534	1.34 ± 0.022	–
[2], x2 = 0.4082	1.43 ± 0.024	–
[2], x2 = 0.4582	1.48 ± 0.025	–
[2], x2 = 0.5031	1.5 ± 0.025	–
[2], x2 = 0.5439	1.5 ± 0.025	–
[2], x2 = 0.5841	1.48 ± 0.025	–
[2], x2 = 0.6226	1.44 ± 0.024	–
[2], x2 = 0.6441	1.39 ± 0.023	–
[2], x2 = 0.6911	1.3 ± 0.022	–
[2], x2 = 0.7407	1.19 ± 0.02	–
[2], x2 = 0.7924	1.04 ± 0.018	–
[2], x2 = 0.8458	0.828 ± 0.014	–
[2], x2 = 0.8971	0.591 ± 0.011	–
[2], x2 = 0.9495	0.327 ± 0.0067	–

CCOC(C)=O [ethyl acetate] + CCCCCCC
Settings	excess molar enthalpy [kJ/mol]	excess molar volume [m3/mol]
[1], x1 = 0.0808	–	4.63e-07 ± 1.8e-08
[1], x1 = 0.143	–	7.33e-07 ± 1.9e-08
[1], x1 = 0.2084	–	9.35e-07 ± 2e-08
[1], x1 = 0.2751	–	1.105e-06 ± 2.1e-08
[1], x1 = 0.3329	–	1.204e-06 ± 2.1e-08
[1], x1 = 0.3968	–	1.263e-06 ± 2.1e-08
[1], x1 = 0.4462	–	1.303e-06 ± 2.2e-08
[1], x1 = 0.5057	–	1.309e-06 ± 2.2e-08
[1], x1 = 0.5536	–	1.289e-06 ± 2.1e-08
[1], x1 = 0.6019	–	1.236e-06 ± 2.1e-08
[1], x1 = 0.6506	–	1.163e-06 ± 2.1e-08
[1], x1 = 0.6848	–	1.107e-06 ± 2.1e-08
[1], x1 = 0.7249	–	1.019e-06 ± 2e-08
[1], x1 = 0.8166	–	7.67e-07 ± 1.9e-08
[1], x1 = 0.8964	–	4.43e-07 ± 1.8e-08
[1], x1 = 0.9478	–	2.47e-07 ± 1.7e-08
[2], x1 = 0.0803	0.471 ± 0.0089	–
[2], x1 = 0.1683	0.838 ± 0.015	–
[2], x1 = 0.2488	1.13 ± 0.019	–
[2], x1 = 0.323	1.33 ± 0.022	–
[2], x1 = 0.395	1.45 ± 0.024	–
[2], x1 = 0.4614	1.5 ± 0.025	–
[2], x1 = 0.5037	1.51 ± 0.025	–
[2], x1 = 0.546	1.52 ± 0.025	–
[2], x1 = 0.5784	1.49 ± 0.025	–
[2], x1 = 0.5813	1.49 ± 0.025	–
[2], x1 = 0.6222	1.43 ± 0.024	–
[2], x1 = 0.6647	1.35 ± 0.022	–
[2], x1 = 0.7146	1.24 ± 0.021	–
[2], x1 = 0.7646	1.09 ± 0.018	–
[2], x1 = 0.8157	0.907 ± 0.016	–
[2], x1 = 0.8649	0.711 ± 0.013	–
[2], x1 = 0.9129	0.482 ± 0.0091	–
[2], x1 = 0.9591	0.249 ± 0.0055	–
